Reference: patent US20140193463A1, “PEPTIDE FOR INHIBITING DIPEPTIDYL-PEPTIDASE IV” (CHINA MEDICAL UNIVERSITY, priority 2013, published 2014)
pIC50: −log10 of the molar value. Residues, ends and D or L forms follow the SMILES beside them.

Legend:
DPP-IV = DPP-IV (Homo sapiens, UniProt P27487); settings: previous studies; read-out: IC50 values against DPP-IV; cited from earlier work
[1] = target: T1, Dipeptidyl-peptidase IV (D7052, from porcine kidney) (Sus scrofa, UniProt P22411); test: Determination of DPP-IV-inhibitory activity (Gly-Pro-p-nitroanilide substrate, absorbance 405 nm); type: biochemical; settings: synthetic peptides and diprotin A, present example (FIG. 4A-4C)
T1 construct: Dipeptidyl-peptidase IV (D7052, from porcine kidney); purchased Sigma-Aldrich D7052; host or cells: porcine kidney (tissue-derived)
Protocol: Atlantic salmon (Salmo salar) fish skins, processing byproducts recovered from fresh skin-off fillets, were supplied by Albion Fisheries Ltd. (Vancouver, BC, Canada). The fish skins were transferred on ice, vacuum packed, and stored at −25° C. until use. Three food-grade proteolytic enzymes were donated by Neova Technologies Inc. (Abbotsford, BC, Canada). Alcalase 2.4 L FG (from Bacillus licheniformis, 2.4 AU/g) and Flavourzyme 1000 L (from Aspergillus oryzae, 1000 LAPU/g) were products from Novo-zymes North America Inc. (Salem, N.C., […]), whereas bromelain (from pineapple stem, 2000 GDU/g) was manufactured by Ultra Bio-Logics Inc. (Montreal, QC, Canada), Dipeptidyl-peptidase IV (D7052, from porcine kidney), Gly-Prop-nitroanilide hydrochloride, trichloroacetic acid (TCA), L-leucine, and diprotin A were purchased from Sigma-Aldrich (St. Louis, Mo.). Trinitrobenzenesulfonic acid (TNBS) was obtained from Fluka Biochemika Oakville ON, Canada). Other chemicals and reagents used were of analytical grade and commercially available,
DPP-IV activity determination was performed in 96-well microplates. In order to measure an increment in absorbance at 405 nm, Gly-Pro-p-nitroanilide is used as a DPP-IV substrate. […] The absorbance of the resulting solution was measured at 405 nm with a microplate reader (iEMS reader MF; Labsystems, Helsinki, Finland).

Chain of DPP-IV (P27487 whole entry, species assumed): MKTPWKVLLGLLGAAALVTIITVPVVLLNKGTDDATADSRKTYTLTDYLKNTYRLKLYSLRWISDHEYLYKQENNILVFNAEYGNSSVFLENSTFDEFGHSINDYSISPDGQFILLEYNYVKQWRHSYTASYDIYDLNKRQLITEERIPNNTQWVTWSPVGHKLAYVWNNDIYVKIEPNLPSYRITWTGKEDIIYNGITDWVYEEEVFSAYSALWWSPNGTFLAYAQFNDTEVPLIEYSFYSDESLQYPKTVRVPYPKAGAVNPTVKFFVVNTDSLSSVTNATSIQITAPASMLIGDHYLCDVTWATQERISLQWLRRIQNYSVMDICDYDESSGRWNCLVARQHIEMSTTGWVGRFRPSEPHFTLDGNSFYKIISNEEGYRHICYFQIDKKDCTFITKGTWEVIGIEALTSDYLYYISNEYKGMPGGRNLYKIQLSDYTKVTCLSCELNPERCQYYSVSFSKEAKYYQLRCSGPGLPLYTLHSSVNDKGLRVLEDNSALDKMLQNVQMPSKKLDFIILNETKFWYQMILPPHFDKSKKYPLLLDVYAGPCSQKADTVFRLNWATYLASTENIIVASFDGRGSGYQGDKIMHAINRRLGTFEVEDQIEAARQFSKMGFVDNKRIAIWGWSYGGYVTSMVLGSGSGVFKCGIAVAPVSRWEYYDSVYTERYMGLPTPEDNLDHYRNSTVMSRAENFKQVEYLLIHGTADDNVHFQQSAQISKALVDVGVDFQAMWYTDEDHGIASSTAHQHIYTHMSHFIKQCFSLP
T1 sequence (P22411 whole entry): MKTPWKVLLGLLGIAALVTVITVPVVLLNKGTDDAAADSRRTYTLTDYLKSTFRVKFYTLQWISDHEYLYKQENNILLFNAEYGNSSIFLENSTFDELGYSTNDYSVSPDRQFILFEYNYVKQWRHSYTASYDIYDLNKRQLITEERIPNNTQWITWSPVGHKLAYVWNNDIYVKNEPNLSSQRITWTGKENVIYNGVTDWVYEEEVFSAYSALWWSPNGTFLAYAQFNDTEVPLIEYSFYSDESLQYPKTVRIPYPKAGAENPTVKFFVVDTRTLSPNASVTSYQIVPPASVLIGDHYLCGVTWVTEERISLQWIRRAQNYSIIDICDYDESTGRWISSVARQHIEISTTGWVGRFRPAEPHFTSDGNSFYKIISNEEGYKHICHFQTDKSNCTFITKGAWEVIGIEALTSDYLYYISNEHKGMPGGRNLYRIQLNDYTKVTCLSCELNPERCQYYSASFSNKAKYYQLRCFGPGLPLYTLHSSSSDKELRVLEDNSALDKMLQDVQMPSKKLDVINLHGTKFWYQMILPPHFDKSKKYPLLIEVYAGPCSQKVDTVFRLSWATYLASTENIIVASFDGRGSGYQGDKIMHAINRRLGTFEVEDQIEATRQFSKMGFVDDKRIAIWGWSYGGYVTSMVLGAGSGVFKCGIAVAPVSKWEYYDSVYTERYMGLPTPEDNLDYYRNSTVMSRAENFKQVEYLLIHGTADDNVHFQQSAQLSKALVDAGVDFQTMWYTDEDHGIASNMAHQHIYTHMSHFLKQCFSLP

Row | pIC50 [1] | Compound | pIC50 (DPP-IV)
1 |  | VAGTWY [Val-Ala-Gly-Thr-Trp-Tyr, peptide prepared from β-lactoglobulin] | 3.76
2 | 4.30 | C[C@H](NC(=O)[C@@H]1CCCN1C(=O)CN)C(=O)N[C@@H](CCC(=O)O)C(=O)O [Gly-Pro-Ala-Glu] (H-GPAE-OH; N-terminus and C-terminus assumed) | 
3 |  | Ile-Pro-Ala [peptide prepared from β-lactoglobulin] | 4.31
4 | 4.38 | C[C@H](NC(=O)CNC(=O)[C@@H]1CCCN1C(=O)CN)C(=O)O [Gly-Pro-Gly-Ala] (H-GPGA-OH; N-terminus and C-terminus assumed) | 
